In PubChem BioAssay (NCI):
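Tested at 5 concentrations; 48 h exposure; 96-well plates; endpoints linearly interpolated, else capped at highest concentration. Definition used: TGI = concentration required for complete inhibition of growth.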

Experiments:
Experiment in all cases: NCI tumour cell line growth inhibition, 48 h
UACC-62 melanoma = system: UACC-62 melanoma
KM12 colon = system: KM12 colon
OVCAR-3 ovarian = system: OVCAR-3 ovarian
CCRF-CEM leukemia = system: CCRF-CEM leukemia
SR leukemia = system: SR leukemia
MDA-MB-435 = system: MDA-MB-435
HT29 colon = system: HT29 colon
NCI-H522 lung = system: NCI-H522 lung
M19-MEL melanoma = system: M19-MEL melanoma
SNB-75 CNS = system: SNB-75 CNS
TK-10 renal = system: TK-10 renal
OVCAR-8 ovarian = system: OVCAR-8 ovarian
DU-145 prostate = system: DU-145 prostate
786-0 renal = system: 786-0 renal
K-562 leukemia = system: K-562 leukemia
DLD-1 colon = system: DLD-1 colon
SK-MEL-5 melanoma = system: SK-MEL-5 melanoma
DMS 273 small cell lung = system: DMS 273 small cell lung
SNB-78 CNS = system: SNB-78 CNS
A549 NSCLC = system: A549 NSCLC
MOLT-4 leukemia = system: MOLT-4 leukemia
MALME-3M melanoma = system: MALME-3M melanoma
T-47D breast = system: T-47D breast
SF-295 CNS = system: SF-295 CNS
ACHN renal = system: ACHN renal
HOP-92 NSCLC = system: HOP-92 NSCLC
IGROV1 ovarian = system: IGROV1 ovarian
SF-539 CNS = system: SF-539 CNS
COLO 205 colon = system: COLO 205 colon
MDA-N = system: MDA-N
EKVX NSCLC = system: EKVX NSCLC
XF 498 CNS = system: XF 498 CNS
HCT-15 colon = system: HCT-15 colon
SW-620 colon = system: SW-620 colon
MDA-MB-231 breast = system: MDA-MB-231 breast
SNB-19 CNS = system: SNB-19 CNS
M14 melanoma = system: M14 melanoma
A498 renal = system: A498 renal
HOP-62 NSCLC = system: HOP-62 NSCLC
LXFL 529 NSCLC = system: LXFL 529 NSCLC
SK-OV-3 ovarian = system: SK-OV-3 ovarian
NCI-H460 lung = system: NCI-H460 lung
PC-3 prostate = system: PC-3 prostate
LOX IMVI melanoma = system: LOX IMVI melanoma
NCI-H23 lung = system: NCI-H23 lung
HL-60(TB) leukemia = system: HL-60(TB) leukemia
U251 CNS = system: U251 CNS
SF-268 CNS = system: SF-268 CNS
HCC-2998 colon = system: HCC-2998 colon
KM20L2 colon = system: KM20L2 colon
BT-549 breast = system: BT-549 breast
SK-MEL-28 melanoma = system: SK-MEL-28 melanoma
UACC-257 melanoma = system: UACC-257 melanoma
UO-31 renal = system: UO-31 renal
NCI-H226 lung = system: NCI-H226 lung
CAKI-1 renal = system: CAKI-1 renal
RXF 393 renal = system: RXF 393 renal
DMS 114 small cell lung = system: DMS 114 small cell lung
NCI/ADR-RES ovarian = system: NCI/ADR-RES ovarian
OVCAR-4 ovarian = system: OVCAR-4 ovarian
OVCAR-5 ovarian = system: OVCAR-5 ovarian
HOP-18 NSCLC = system: HOP-18 NSCLC
HCT-116 colon = system: HCT-116 colon
SK-MEL-2 melanoma = system: SK-MEL-2 melanoma
RPMI-8226 leukemia = system: RPMI-8226 leukemia
SN12C renal = system: SN12C renal
HS 578T breast = system: HS 578T breast
MCF7 breast = system: MCF7 breast

SMILES: CN(C)CCNc1ccc(CO)c2sc3ccc(O)cc3c(=O)c12
- TGI (UACC-62 melanoma): 7.75 µM
- TGI (KM12 colon): 7.3 µM
- TGI (OVCAR-3 ovarian): 23.5 µM
- TGI (CCRF-CEM leukemia): 21.3 µM
- TGI (SR leukemia): 0.78 µM
- TGI (MDA-MB-435): 4.34 µM
- TGI (HT29 colon): 9.35 µM
- TGI (NCI-H522 lung): 3.49 µM
- TGI (M19-MEL melanoma): 15.9 µM
- TGI (SNB-75 CNS): 9.62 µM
- TGI (TK-10 renal): 32.1 µM
- TGI (OVCAR-8 ovarian): 8.89 µM
- TGI (DU-145 prostate): 4.05 µM
- TGI (786-0 renal): 9.37 µM
- TGI (K-562 leukemia): > 20.9 µM
- TGI (DLD-1 colon): 18.6 µM
- TGI (SK-MEL-5 melanoma): 8.37 µM
- TGI (DMS 273 small cell lung): 9.97 µM
- TGI (SNB-78 CNS): > 45.6 µM
- TGI (A549 NSCLC): 6.77 µM
- TGI (MOLT-4 leukemia): > 21.7 µM
- TGI (MALME-3M melanoma): 9.81 µM
- TGI (T-47D breast): 7.68 µM
- TGI (SF-295 CNS): 12.1 µM
- TGI (ACHN renal): 6.75 µM
- TGI (HOP-92 NSCLC): 7.35 µM
- TGI (IGROV1 ovarian): 16.4 µM
- TGI (SF-539 CNS): 6.9 µM
- TGI (COLO 205 colon): 16.8 µM
- TGI (MDA-N): 3.7 µM
- TGI (EKVX NSCLC): 19.1 µM
- TGI (XF 498 CNS): 19.9 µM
- TGI (HCT-15 colon): 14.2 µM
- TGI (SW-620 colon): 10.5 µM
- TGI (MDA-MB-231 breast): 4.24 µM
- TGI (SNB-19 CNS): 11.9 µM
- TGI (M14 melanoma): 16.5 µM
- TGI (A498 renal): 20.4 µM
- TGI (HOP-62 NSCLC): 4.23 µM
- TGI (LXFL 529 NSCLC): 19 µM
- TGI (SK-OV-3 ovarian): 8.29 µM
- TGI (NCI-H460 lung): 2.87 µM
- TGI (PC-3 prostate): 5.92 µM
- TGI (LOX IMVI melanoma): 6.75 µM
- TGI (NCI-H23 lung): 4.14 µM
- TGI (HL-60(TB) leukemia): 6.13 µM
- TGI (U251 CNS): 7.46 µM
- TGI (SF-268 CNS): 8.82 µM
- TGI (HCC-2998 colon): 7.4 µM
- TGI (KM20L2 colon): 22.7 µM
- TGI (BT-549 breast): 8.93 µM
- TGI (SK-MEL-28 melanoma): 19.1 µM
- TGI (UACC-257 melanoma): 15.7 µM
- TGI (UO-31 renal): 6.68 µM
- TGI (NCI-H226 lung): 8.48 µM
- TGI (CAKI-1 renal): > 25.9 µM
- TGI (RXF 393 renal): 4.44 µM
- TGI (DMS 114 small cell lung): 16.5 µM
- TGI (NCI/ADR-RES ovarian): 17.2 µM
- TGI (OVCAR-4 ovarian): 13.1 µM
- TGI (OVCAR-5 ovarian): 14.6 µM
- TGI (HOP-18 NSCLC): 29.6 µM
- TGI (HCT-116 colon): 9.71 µM
- TGI (SK-MEL-2 melanoma): 11.6 µM
- TGI (RPMI-8226 leukemia): 12.8 µM
- TGI (SN12C renal): 15.4 µM

SMILES: O=C(c1nc2ccc([N+](=O)[O-])cc2[nH]c1=O)C(O)c1ccc2c(c1)OCO2 (stereo not given)
- TGI (UACC-62 melanoma): > 100 µM
- TGI (KM12 colon): > 93 µM
- TGI (OVCAR-3 ovarian): > 100 µM
- TGI (CCRF-CEM leukemia): > 100 µM
- TGI (SR leukemia): > 100 µM
- TGI (MDA-MB-435): > 100 µM
- TGI (HT29 colon): > 100 µM
- TGI (NCI-H522 lung): > 100 µM
- TGI (M19-MEL melanoma): > 100 µM
- TGI (SNB-75 CNS): > 100 µM
- TGI (TK-10 renal): > 100 µM
- TGI (OVCAR-8 ovarian): > 100 µM
- TGI (DU-145 prostate): > 100 µM
- TGI (786-0 renal): > 100 µM
- TGI (K-562 leukemia): > 100 µM
- TGI (DLD-1 colon): > 100 µM
- TGI (SK-MEL-5 melanoma): > 100 µM
- TGI (DMS 273 small cell lung): > 100 µM
- TGI (A549 NSCLC): > 100 µM
- TGI (MOLT-4 leukemia): > 100 µM
- TGI (MALME-3M melanoma): > 100 µM
- TGI (T-47D breast): > 100 µM
- TGI (SF-295 CNS): > 100 µM
- TGI (ACHN renal): > 100 µM
- TGI (HOP-92 NSCLC): > 100 µM
- TGI (IGROV1 ovarian): > 100 µM
- TGI (SF-539 CNS): > 100 µM
- TGI (COLO 205 colon): > 100 µM
- TGI (MDA-N): > 100 µM
- TGI (EKVX NSCLC): > 100 µM
- TGI (HCT-15 colon): > 100 µM
- TGI (SW-620 colon): > 100 µM
- TGI (MDA-MB-231 breast): > 100 µM
- TGI (SNB-19 CNS): > 100 µM
- TGI (M14 melanoma): > 100 µM
- TGI (A498 renal): > 100 µM
- TGI (HOP-62 NSCLC): > 100 µM
- TGI (LXFL 529 NSCLC): > 100 µM
- TGI (SK-OV-3 ovarian): > 100 µM
- TGI (NCI-H460 lung): > 100 µM
- TGI (PC-3 prostate): > 100 µM
- TGI (LOX IMVI melanoma): > 100 µM
- TGI (NCI-H23 lung): > 100 µM
- TGI (HL-60(TB) leukemia): > 100 µM
- TGI (U251 CNS): > 100 µM
- TGI (SF-268 CNS): > 100 µM
- TGI (HCC-2998 colon): > 100 µM
- TGI (HS 578T breast): > 100 µM
- TGI (KM20L2 colon): > 100 µM
- TGI (BT-549 breast): > 100 µM
- TGI (SK-MEL-28 melanoma): > 100 µM
- TGI (UACC-257 melanoma): > 100 µM
- TGI (MCF7 breast): > 100 µM
- TGI (UO-31 renal): > 100 µM
- TGI (NCI-H226 lung): > 100 µM
- TGI (CAKI-1 renal): > 100 µM
- TGI (RXF 393 renal): > 100 µM
- TGI (DMS 114 small cell lung): > 100 µM
- TGI (NCI/ADR-RES ovarian): > 100 µM
- TGI (OVCAR-4 ovarian): > 100 µM
- TGI (OVCAR-5 ovarian): > 100 µM
- TGI (HOP-18 NSCLC): > 100 µM
- TGI (HCT-116 colon): > 100 µM
- TGI (SK-MEL-2 melanoma): > 100 µM
- TGI (RPMI-8226 leukemia): > 100 µM
- TGI (SN12C renal): > 100 µM

SMILES: Brc1ccc(C[P+]2(c3ccccc3)CCCCC2)cc1
- TGI (UACC-62 melanoma): > 100 µM
- TGI (KM12 colon): > 100 µM
- TGI (OVCAR-3 ovarian): > 100 µM
- TGI (CCRF-CEM leukemia): > 100 µM
- TGI (SR leukemia): > 100 µM
- TGI (HT29 colon): > 100 µM
- TGI (NCI-H522 lung): > 100 µM
- TGI (M19-MEL melanoma): 76.4 µM
- TGI (SNB-75 CNS): 77.1 µM
- TGI (TK-10 renal): > 100 µM
- TGI (OVCAR-8 ovarian): > 100 µM
- TGI (786-0 renal): > 100 µM
- TGI (K-562 leukemia): > 100 µM
- TGI (DLD-1 colon): > 100 µM
- TGI (SK-MEL-5 melanoma): 39.1 µM
- TGI (DMS 273 small cell lung): > 100 µM
- TGI (SNB-78 CNS): 84.2 µM
- TGI (A549 NSCLC): > 100 µM
- TGI (MOLT-4 leukemia): > 100 µM
- TGI (MALME-3M melanoma): > 100 µM
- TGI (SF-295 CNS): > 100 µM
- TGI (ACHN renal): > 100 µM
- TGI (IGROV1 ovarian): > 100 µM
- TGI (SF-539 CNS): > 100 µM
- TGI (COLO 205 colon): > 100 µM
- TGI (EKVX NSCLC): > 100 µM
- TGI (HCT-15 colon): > 100 µM
- TGI (SW-620 colon): > 100 µM
- TGI (SNB-19 CNS): > 100 µM
- TGI (M14 melanoma): > 100 µM
- TGI (A498 renal): > 100 µM
- TGI (HOP-62 NSCLC): > 100 µM
- TGI (LXFL 529 NSCLC): > 100 µM
- TGI (SK-OV-3 ovarian): > 100 µM
- TGI (NCI-H460 lung): > 100 µM
- TGI (LOX IMVI melanoma): > 100 µM
- TGI (NCI-H23 lung): > 100 µM
- TGI (HL-60(TB) leukemia): 75.8 µM
- TGI (U251 CNS): > 100 µM
- TGI (HCC-2998 colon): > 100 µM
- TGI (KM20L2 colon): > 100 µM
- TGI (SK-MEL-28 melanoma): > 100 µM
- TGI (UACC-257 melanoma): 73.8 µM
- TGI (UO-31 renal): > 100 µM
- TGI (NCI-H226 lung): > 100 µM
- TGI (RXF 393 renal): > 100 µM
- TGI (DMS 114 small cell lung): > 100 µM
- TGI (OVCAR-5 ovarian): > 100 µM
- TGI (HOP-18 NSCLC): > 100 µM
- TGI (HCT-116 colon): > 100 µM
- TGI (SK-MEL-2 melanoma): > 100 µM
- TGI (RPMI-8226 leukemia): > 100 µM
- TGI (SN12C renal): > 100 µM
